Test results from ChEMBL document CHEMBL2401656, “LDK378: a promising anaplastic lymphoma kinase (ALK) inhibitor” (J Med Chem, 2013).
pIC50: −log10 of the molar value.

Assays:
[1] = system: Rhesus monkey; experiment: Cardiotoxicity in monkey assessed as QTc prolongation by telemetric analysis; assay type: toxicity, organism-based, Macaca mulatta; settings: in vivo
[2] = organism: Canis familiaris; experiment: Cardiotoxicity in dog assessed as QTc prolongation by telemetric analysis; assay type: toxicity, organism-based, Canis lupus familiaris; settings: in vivo
[3] = biological target: Cytochrome P450 3A4 (Homo sapiens, UniProt P08684); experiment: Inhibition of CYP3A4 (unknown origin); assay type: ADME
[4] = Metabolic stability in liver microsomes (unknown origin); assay type: ADME, Microsome
[5] = system: Rattus norvegicus; experiment: Toxicity in rat xenografted with human NCI-H2228 cells expressing EML4-ALK fusion gene; assay type: organism-based; settings: in vivo
[6] = system: Rattus norvegicus; experiment: Toxicity in rat xenografted with human KARPAS299 cells; assay type: organism-based, KARPAS-299; settings: in vivo
[7] = Oral bioavailability in rat; assay type: ADME, organism-based; settings: in vivo
[8] = Cytotoxicity against mouse BA/F3 cells transfected with Tel-InsR gene assessed as growth inhibition; assay type: functional, cell-based; settings: BaF3
[9] = Cytotoxicity against wild type mouse BA/F3 cells assessed as growth inhibition; assay type: functional, cell-based; settings: BaF3
[10] = Cytotoxicity against mouse BA/F3 cells expressing NPM-ALK fusion gene assessed as growth inhibition; assay type: functional, cell-based; settings: BaF3
[11] = system: KARPAS-299; experiment: Cytotoxicity against human KARPAS299 cells expressing NPM-ALK fusion gene assessed as growth inhibition
[12] = system: KARPAS-299; settings: Homo sapiens
Description: Antitumor activity against human KARPAS299 cells xenografted in rat assessed as tumor growth inhibition

Cytochrome P450 3A4, sequence (P08684 whole entry): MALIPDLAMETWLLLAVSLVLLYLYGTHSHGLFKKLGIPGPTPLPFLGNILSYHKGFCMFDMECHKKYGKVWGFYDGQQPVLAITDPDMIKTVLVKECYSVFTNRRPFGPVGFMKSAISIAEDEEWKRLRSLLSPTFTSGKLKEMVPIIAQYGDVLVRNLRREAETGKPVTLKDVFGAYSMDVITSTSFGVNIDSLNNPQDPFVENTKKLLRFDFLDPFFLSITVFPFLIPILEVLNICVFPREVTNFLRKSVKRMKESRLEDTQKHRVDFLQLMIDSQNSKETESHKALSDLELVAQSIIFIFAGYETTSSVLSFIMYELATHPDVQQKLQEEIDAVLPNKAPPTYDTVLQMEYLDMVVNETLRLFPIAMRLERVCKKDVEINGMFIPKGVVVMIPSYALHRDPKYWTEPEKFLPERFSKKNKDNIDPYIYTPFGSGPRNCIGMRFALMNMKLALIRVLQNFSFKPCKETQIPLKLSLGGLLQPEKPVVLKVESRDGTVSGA

inhibition (INH) [3]: Active
Stability [4]: Stable
bioavailability [7]: > 50%
SMILES: Cc1cc(Nc2ncc(Cl)c(Nc3ccccc3S(=O)(=O)C(C)C)n2)c(OC(C)C)cc1C1CCNCC1 [CERITINIB]
Activity [1]: Non-toxic
Activity [2]: Non-toxic
Activity [5]: Non-toxic
Activity [6]: Non-toxic
pIC50 [8]: 6.49
pIC50 [9]: < 5.70
pIC50 [10]: 7.59
pIC50 [11]: 7.64
TGI [12]: Dose-dependent effect
